Our source for the IC50 values is PubChem BioAssay AID602156 (GNF / Scripps Winzeler lab, 2011).

As usually defined, the IC50 is the concentration that gives 50% inhibition.

Active and inactive are the calls of the source. How the calls were made is not given here. Where only a bound is given, the exact number is not on record here.

The subject of the assay is P. yoelii liver stage in HepG2-A16-CD81EGFP, imaging. As to the kind of experiment: Plasmodium liver-stage growth inhibition, dose response, imaging, Malaria Box, P. yoelii, HepG2-A16-CD81EGFP (AID 602156).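 Further: infected cells exposed to compound for 48 hours before fixation.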
As for `Cc1c(Cl)cccc1N1C(=O)C2C3c4ccccc4C(c4ccccc43)C2C1=O` (centres undefined), the IC50 is > 10000 nM (inactive).

Consider `C=CCc1c(C)[nH]c2ccc(Br)cc2c1=O`, for which the half-maximal inhibitory concentration (IC50) was 181 nM. Under `CCCN(CCC)CCCNc1ccc(C(=O)Nc2ccc(C)c(F)c2)cc1[N+](=O)[O-]` stands 646 nM.

With `CN(C)CCCN(Cc1cc2cc3c(cc2[nH]c1=O)OCO3)C(=S)Nc1cccc(Cl)c1`, the IC50 is 818 nM. Under `Cc1oc2c(c1C(=O)NCC1CCCO1)C(=O)c1ccccc1C2=O` (centres undefined) stands 189 nM.

For `Fc1ccccc1Nc1nc(NCc2ccccc2)c2ccccc2n1`, the half-inhibitory concentration (IC50) is 690 nM.

Turning to `COc1ccc(C2CC(=O)C3=C(C2)NC(C)=C(C(=O)OC(C)C)C3c2cccc(C)c2)cc1OC` (centres undefined), the half-maximal inhibitory concentration (IC50) is 1840 nM. The value for `C/C=C/[P+](c1ccccc1)(c1ccccc1)c1ccccc1` was 49.4 nM. Under `O=C(Cc1ccccc1)NC(c1ccc(Cl)cc1)c1ccc2cccnc2c1O` (centres undefined) stands 190 nM; under `CC1(C)N=C(N)N=C(N)N1c1ccc(F)cc1`, 18.9 nM; under `CC(C)(C)OC(=O)N1CCC(c2c(C(=O)Nc3cccc(C(F)(F)F)c3)cnn2-c2ccc(F)cc2F)CC1`, 3120 nM. The value for `O=C(c1cccs1)N1CCN(c2ccc([N+](=O)[O-])c(NC3CC3)c2)CC1` was 692 nM. `OCCNc1nc(Nc2ccc(F)cc2)nc2ccccc12`: the IC50 is 136 nM. `O=C(NC(=C(Cl)Cl)[P+](c1ccccc1)(c1ccccc1)c1ccccc1)c1ccc(F)cc1`: the IC50 was 14.5 nM. In the case of `Cc1ccccc1N=Nc1ccc(NC(=O)c2ccco2)c(C)c1`, the IC50 was 300 nM. For `O=C1C(Nc2ccc(O)cc2)=CC(=NS(=O)(=O)c2cccs2)c2ccccc21`, the IC50 was 85.6 nM. Turning to `COc1cccc(-c2cncc(-c3cncc(OC)c3)n2)c1`, the IC50 is > 10000 nM (inactive). Under `CCCN(C(=O)Nc1c(C(C)C)cccc1C(C)C)C(CC)c1nc2ccccc2c(=O)n1-c1cccc(C)c1` (centres undefined) stands 6300 nM; under `COc1ccc2cc3[n+](cc2c1OC)CCc1cc2c(cc1-3)OCO2`, 548 nM; under `COc1ccc2nc(C)cc(Nc3ccc(Oc4ccc(Cl)c5ccccc45)c(Cl)c3)c2c1`, 267 nM.

Take `CCOC(=O)c1c(CNC)n(C)c2cc(Br)c(O)cc12`: the IC50 was > 10000 nM (inactive). Under `CC(=O)N1c2ccc(C)cc2C(C)(c2ccccc2)CC1(C)C` (centres undefined) stands 1250 nM.

Consider `COC(=O)C1=C(C)NC2=C(C(=O)CC(c3ccccc3Cl)C2)C1c1ccc([N+](=O)[O-])cc1` (centres undefined), for which the IC50 is 842 nM. Consider `O=c1c2c([nH]c3ccccc13)CCCCCCCCCC2`, for which the IC50 is 99 nM.

Take `CC(=O)Nc1cccc(-c2cncc(-c3ccc(C(=O)O)cc3)n2)c1`: the IC50 was > 10000 nM (inactive).

Turning to `Cc1nc2ccccc2c(=O)n1-c1ccc([N+](=O)[O-])cc1`, the IC50 is > 10000 nM (inactive).

`CC1(C)N=C(N)N=C(N)N1c1ccc(Cl)cc1`: the 50% inhibitory concentration (IC50) is 2.56 nM. The value for `N#Cc1c2c(c(N3CCN(Cc4ccccc4)CC3)n3c1nc1ccccc13)CCC2` was > 10000 nM (inactive).

Take `CCOC(=O)CN(N=O)C1=C(N2CC2)C(=O)c2ccccc2C1=O`: the half-inhibitory concentration (IC50) was 480 nM.

In the case of `COc1cc(C(=O)NCCc2ccccn2)ccc1OC1CCN(CC(c2ccccc2)c2ccccc2)CC1`, the IC50 was 1280 nM.

For the molecule `Cn1ncnc2c(=O)n(C)c(=O)nc1-2`, the half-maximal inhibitory concentration (IC50) was 103 nM. As to `N#CC1=C(N)Oc2c3c(c4ccccc4c2C1c1ccc(F)cc1)C(c1ccc(F)cc1)C(C#N)=C(N)O3` (centres undefined), the IC50 is 3930 nM. Under `CCCC1(CCC)NC(=S)N(c2ccc(C)c(C)c2)N1` stands > 10000 nM (inactive); under `OCCNc1nc(Nc2ccccc2)nc2ccccc12`, 47.9 nM.

Take `Cc1cc(C(=O)Nc2cnn(Cc3ccc(Cl)cc3Cl)c2)no1`: the IC50 is 335 nM.

As for `O=c1c2c([nH]c3ccccc13)CCCCCC2`, the IC50 was 727 nM.

As to `COc1ccc(C(NC(=O)c2cccnc2)c2cc(Cl)c3cccnc3c2O)cc1` (centres undefined), the IC50 was 542 nM. The value for `O=C(Nc1ccc(Oc2cccc(Oc3ccc(NC(=O)c4ccc(Br)o4)cc3)c2)cc1)c1ccc(Br)o1` was 433 nM; that for `CCN(CC)CCCN(Cc1cc2ccc(C)cc2[nH]c1=O)C(=S)Nc1cccc(Cl)c1` was 448 nM; that for `CC1(C)N=C(N)N=C(N)N1c1ccccc1` was 100 nM. Under `CCSc1ccc2ccccc2[n+]1CC` stands > 10000 nM (inactive); under `CCCCCCCc1cc(O)c2c3c(c(=O)oc2c1)CCC(C)C3` (centres undefined), 247 nM. The value for `Cc1cccc(-c2cc3nc(C)c(C)c(=O)n3[nH]2)c1` was 1100 nM; that for `Brc1ccc(-c2c[n+]3c(n2-c2ccccc2)SCC3)cc1` was 828 nM; that for `Cc1ccc(-c2[nH]n3c(=O)c4c(nc3c2C)CCCC4)cc1` was 11.3 nM. Consider `Cc1[nH]c2ccc(Br)cc2c(=O)c1CC(C)C`, for which the IC50 was 244 nM. The value for `Cc1cn2c3ccccc3n(CCN3CCCC3)c2n1` was 1070 nM. The value for `COc1ccc2[nH]c(=O)c(CN(C(=S)Nc3ccccc3OC)C3CCCC3)cc2c1` was > 9740 nM (inactive); that for `CCCN[P+](CC(C)C)(NCCC)NCCC` was 281 nM; that for `O=C(Nc1ccc2oc(-c3cccc4ccccc34)nc2c1)c1ccc([N+](=O)[O-])o1` was 72.5 nM. As to `Cc1oc2c(c1C(=O)NCCCn1ccnc1)C(=O)c1ccccc1C2=O`, the IC50 was 119 nM. Under `CCCCCC[P+](N(CCC)CCC)(N(CCC)CCC)N(CCC)CCC` stands 49.1 nM; under `CCN(CC)CCN(Cc1cc2ccc(C)cc2[nH]c1=O)C(=S)NC(C)c1ccccc1` (centres undefined), 883 nM. Under `Cc1ccnc(Nc2nc(-c3ccccn3)cs2)c1` stands 95.6 nM; under `COc1ccccc1CNC(=O)c1nn(-c2ccc(Cl)cc2)c(=O)c2ccccc12`, > 10000 nM (inactive); under `COc1ccc(C2CC(=O)C3=C(C2)NC(C)=C(C(=O)OC2CCCC2)C3c2ccc([N+](=O)[O-])cc2)cc1OC` (centres undefined), 3920 nM. The value for `CC(c1nc2ccc(Cl)cc2c(=O)n1C)N1CCN(S(=O)(=O)c2cccc3ccccc23)CC1` (centres undefined) was 22.3 nM; that for `CCCc1nc2ccc(NC(=O)c3ccccc3F)cc2c(=O)n1Cc1ccc(-c2ccccc2)cc1` was 1730 nM; that for `CCCCc1c(C)[nH]c2ccc(Br)cc2c1=O` was 64.7 nM. Consider `COc1ccc(-c2c(C(F)(F)F)nn(C)c2NC(=O)Nc2ccc(F)cc2F)cc1`, for which the IC50 is 3450 nM. The value for `CCOc1ccc(N(C(=O)C2COc3ccccc3O2)C(C(=O)NC2CCCCC2)c2cn(C)nc2C)cc1` (centres undefined) was > 10000 nM (inactive); that for `c1ccc2cc3c(N4CCN(CCN5CCN(c6ccnc7cc8ccccc8cc67)CC5)CC4)ccnc3cc2c1` was 2910 nM.

Take `CCCc1nc2ccc(NC(=O)c3ccco3)cc2c(=O)n1Cc1ccc(-c2ccccc2)cc1`: the 50% inhibitory concentration (IC50) is 306 nM. As to `Cc1ccc(Nc2nc3c(N)nnc(N)c3nc2Nc2ccc(C)cc2)cc1`, the IC50 was 488 nM. The value for `CN(C)c1oc(-c2ccc(Cl)cc2Cl)nc1[P+](c1ccccc1)(c1ccccc1)c1ccccc1` was 129 nM. Turning to `Cc1ccc2cc(C)c(Nc3ccc(Cl)cc3)nc2c1`, the concentration for half-maximal inhibition (IC50) is 148 nM. Under `O=C1N(Cc2cc3ccccc3s2)CC2CN(Cc3ccsc3)CCN12` (centres undefined) stands 25.5 nM; under `CC1(C)C2CCC(C2)C1(C)NC(=S)NN=Cc1ccccn1` (centres undefined), 17.4 nM; under `CCC1CN2CCc3cc(OC)c(OC)cc3C2CC1CC1NCCc2cc(OC)c(OC)cc21` (centres undefined), 80.2 nM. Under `COc1ccc2c(C)nc(Nc3nc(C)cc(-c4ccccc4)n3)nc2c1` stands 6660 nM; under `CCCc1ccc(C(=O)NC(=O)c2ccccc2O)cc1`, 4.18 nM; under `COc1ccc(-c2n(CC(=O)OC3CC(C)CCC3C(C)C)c3ccccc3[n+]2C)cc1` (centres undefined), 156 nM.

With `CCC(C)(C)c1ccc(OCCOCC[n+]2ccccc2)c(C(C)(C)CC)c1`, the IC50 was 96.2 nM. The value for `C1CCC(NP2(NC3CCCCC3)=NP(NC3CCCCC3)(NC3CCCCC3)=NP(NC3CCCCC3)(NC3CCCCC3)=N2)CC1` was 18.6 nM; that for `COc1ccc2nc(-c3ccccc3)cc(NCCN(C)C)c2c1` was 570 nM; that for `CCOC(=O)c1ccc(NC(=O)CSc2nc(NCc3ccccc3)c3ccccc3n2)cc1` was 38.1 nM. Under `CC1(C)N=C(N)N=C(N)N1c1ccc(Oc2ccc(Cl)cc2)c(Cl)c1` stands 73 nM.

For the molecule `O=C1CC(c2ccccc2)CC2=C1C(c1ccccc1[N+](=O)[O-])Nc1ccccc1N2` (centres undefined), the IC50 is > 10000 nM (inactive).

On to `Cc1cc(N)c2ccccc2[n+]1CCCCCCCCCC[n+]1c(C)cc(N)c2ccccc21`, for which the half-inhibitory concentration (IC50) is 566 nM.

As to `CCOC(=O)c1ccc2[nH]c(-c3ccccc3)cc(=O)c2c1`, the IC50 was 20 nM. Under `Cc1c(C#N)c2ccccc2n1CC(=O)Nc1ccc(Br)cc1` stands > 10000 nM (inactive); under `CCC(Sc1nnc(-c2ccc(C)cc2)c(-c2ccc(C)cc2)n1)C(=O)NCCOC` (centres undefined), 303 nM; under `CN(C)c1ccc(-c2n(C)c3ccccc3[n+]2C)cc1`, 175 nM. As to `Oc1c(C(Nc2ccccn2)c2cccc(Cl)c2Cl)ccc2cccnc12` (centres undefined), the IC50 was 402 nM. The value for `Cc1ccc(OCC(=O)Nc2cccc(-c3nc4ncccc4o3)c2)cc1C` was > 10000 nM (inactive); that for `Cc1ccc(-c2cc3nc4c(c(=O)n3[nH]2)CCCC4)cc1` was 75.3 nM. Under `O=C1c2ccccc2C2=Nc3ccccc3SC(c3cccc(F)c3)C12` (centres undefined) stands 162 nM; under `N#Cc1c2c(c(N3CCN(c4ccccn4)CC3)n3c1nc1ccccc13)CCC2`, > 10000 nM (inactive). Take `CCN(c1ccccc1)S(=O)(=O)c1ccc(F)c(C(=O)Nc2c(C)cccc2C)c1`: the IC50 was > 10000 nM (inactive). The value for `CCN1C(=Cc2cc[n+](C)cc2)C=Cc2cc(C)ccc21` was 170 nM; that for `O=[N+]([O-])c1ccc(N2CCCN(C(=S)Nc3ccc(F)cc3Br)CC2)nc1` was 4620 nM. Under `c1ccc(Cc2cc[n+](Cc3ccccc3)cc2)cc1` stands 4520 nM; under `CC1(C)N=C(N)N=C(N)N1c1ccc(I)cc1`, 10 nM.

Consider `c1ccc(Nc2ccnc(Nc3ccccc3)n2)cc1`, for which the IC50 was 1480 nM.
